From patent US20080292736A1, “Bioavailability enhancing activity of carum carvi extracts and fractions thereof” (COUNCIL OF SCIENTIFIC AND INDUSTRIAL RESEARCH, priority 2001, published 2008)
Read-outs that look alike come from different tables or passages of the source.

Assays:
[1] = Enhancement of bioavailability of drugs given to rats with bioenhancers (plasma drug level by HPLC); details: drug with Carum carvi bioenhancer (aqueous or 50% alcoholic extract 30 mg/kg or Fraction No. 1 15 mg/kg), drug dose mg/kg
Experimental: (§1) Bioenhancers of Zingiber officinale, mean 50% alcoholic extract of fresh ginger. The doses remain unchanged whether the bioenhancers are used alone or in combination.
(§2) The amount of bioenhancers used are given below: • i. from Carum carvi: extract 30 mg/kg body weight (rats); Fraction No. 1: 15 mg/kg body weight (rats) • ii. piperine 8 mg/kg body weight (rats) • iii. Zingiber officinale: 35 mg/kg body weight (rats) • The drug used was rifampicin (40 mg/kg). The drug alone or in combination with the bioenhancers was administered to rats as given below: • Group 1: control • Group 2: Rifampicin alone • Group 3: bioenhancer alone • Group 4: Rifampicin with Carum carvi bioenhancer
(§3) Blood from the control/treated animals at predetermined intervals (0-24 hours) (total 14 timings). Rifampicin was extracted from the blood (plasma) using dichloromethane. […] The mobile phase was phosphate buffer:acetonitrile in a ratio of 40:60, and a flow rate of 1.0 ml/min.

[2] = rat, in vivo; for % Enhancement in bioavailability, BE from Zingiber officinale: 35 mg/kg; for % Enhancement in bioavailability, Carum carvi (Cc) Extr.: 30 mg/kg
Experimental: as §1, §2, §3

[3] = drug with piperine; background statement; cited from earlier work

Row | Compound | % Enhancement in bioavailability, BE from Carum carvi [1] | % Enhancement in bioavailability, Carum carvi + Piperine [2] | % Enhancement in bioavailability, Carum carvi + Zingiber officinale [2] | % Enhancement in bioavailability, BE from Zingiber officinale [2] | % Enhancement in bioavailability, Carum carvi + Zingiber officinale, Extr. (Cc) [2] | % Enhancement in bioavailability, Carum carvi + Zingiber officinale, Frac 1. (Cc) [2] | % Enhancement in bioavailability, Carum carvi + piperine, Extr. (Cc) [2] | % Enhancement in bioavailability, Carum carvi + piperine, Frac 1. (Cc) [2] | % Enhancement in bioavailability, Carum carvi (Cc) Extr. [2] | % Enhancement in bioavailability, BE from Carum carvi [2] | bioenhancing effect of piperine on the drug [3]
1 | CCOC(=O)C1=C(COCCN)NC(C)=C(C(=O)OC)C1c1ccccc1Cl (stereo not drawn) [Amlodipine] | Nil | 50% | 65% | 68% | – | – | – | – | – | – | –
2 | CC(C)C[C@H](N)C(=O)O [Leucine] | – | – | – | 24% | 35% | 40% | 29% | 32% | 19% | – | –
3 | COc1cc(/C=C/C(=O)CC(=O)/C=C/c2ccc(O)c(OC)c2)ccc1O [Curcumin] | – | – | – | 49% | 43% | 52% | 42% | 51% | 40% | – | –
4 | O=C1O[C@H]([C@@H](O)CO)C(O)=C1O [Vit C] | – | – | – | Nil | Nil | Nil | Nil | Nil | Nil | – | –
5 | Nc1nc2ncc(CNc3ccc(C(=O)N[C@@H](CCC(=O)O)C(=O)O)cc3)nc2c(=O)[nH]1 [Folio Acid] | – | – | – | nil | nil | nil | nil | nil | Nil | – | –
6 | COc1ccc2[nH]c([S+]([O-])Cc3ncc(C)c(OC)c3C)nc2c1 (stereo not drawn) [Omeprazole] | – | 70% | 75% | nil | – | – | – | – | – | 76% | –
7 | Silymarin | – | – | – | 33% | 38% | 41% | 36% | 45% | 31% | – | –
8 | Vitamin A | – | – | – | Nil | 20% | 27% | 13% | 16% | 17% | – | –
9 | C=CC[C@@H]1/C=C(\C)C[C@H](C)C[C@H](OC)[C@H]2O[C@@](O)(C(=O)C(=O)N3CCCC[C@H]3C(=O)O[C@H](/C(C)=C/[C@@H]3CC[C@@H](O)[C@H](OC)C3)[C@H](C)[C@@H](O)CC1=O)[C@H](C)C[C@@H]2OC [Tacrolimus] | – | 95% | 114% | 75% | – | – | – | – | – | 90% | –
10 | N[C@@H]1CON=C1O [Cycloserine] | – | 80% | 75% | 71% | – | – | – | – | – | 70% | –
11 | CC1=C(C(=O)O)N2C(=O)[C@@H](NC(=O)[C@H](N)c3ccc(O)cc3)[C@H]2SC1 [Cefadroxil] | – | 95% | 85% | 68% | – | – | – | – | – | 67% | –
12 | CC[C@H]1OC(=O)[C@H](C)[C@@H](O[C@H]2C[C@@](C)(OC)[C@@H](O)[C@H](C)O2)[C@H](C)[C@@H](O[C@@H]2O[C@H](C)C[C@H](N(C)C)[C@H]2O)[C@](C)(O)C[C@@H](C)CN(C)[C@H](C)[C@@H](O)[C@]1(C)O [Azithromycin] | – | 90% | 86% | 78% | – | – | – | – | – | 55% | –
13 | CN1C(C(=O)Nc2ccccn2)=C(O)c2ccccc2S1(=O)=O [Piroxicam] | – | 98% | 76% | 86% | – | – | – | – | – | Nil | –
14 | NCCCC[C@H](N)C(=O)O [Lysine] | – | – | – | 19% | 39% | 43% | 33% | 38% | 26% | – | –
15 | [Se] [Selenium] | – | – | – | Nil | nil | nil | Nil | nil | Nil | – | –
16 | CCCNC(=O)NS(=O)(=O)c1ccc(Cl)cc1 [chlorpropamide] | – | – | – | – | – | – | – | – | – | – | does not enhance
17 | C=CC1=C(C(=O)O)N2C(=O)[C@@H](NC(=O)/C(=N\OCC(=O)O)c3csc(N)n3)[C@H]2SC1 [Cefixime] | – | 79% | 82% | Nil | – | – | – | – | – | 80% | –
18 | CC[C@@H](CO)NCCN[C@@H](CC)CO [Ethambutol] | – | nil | nil | Nil | – | – | – | – | – | Nil | –
19 | Nc1nc2c(ncn2COCCO)c(=O)[nH]1 [Acyclovir] | – | 100% | 90% | 82% | – | – | – | – | – | 78% | –
20 | NCC[C@H](O)C(=O)N[C@@H]1C[C@H](N)[C@@H](O[C@H]2O[C@H](CN)[C@@H](O)[C@H](O)[C@H]2O)[C@H](O)[C@H]1O[C@H]1O[C@H](CO)[C@@H](O)[C@H](N)[C@H]1O [Amikacin] | – | 100% | 92% | Nil | – | – | – | – | – | 85% | –
21 | CC(C)[C@H](N)C(=O)O [Valine] | – | – | – | 21% | 32% | 38% | 22% | 29% | 16% | – | –
22 | [Cu] [Copper] | – | – | – | nil | Nil | Nil | nil | Nil | nil | – | –
23 | C[C@@H]1O[C@@H](OC[C@H]2O[C@@H](Oc3c(-c4ccc(O)c(O)c4)oc4cc(O)cc(O)c4c3=O)[C@H](O)[C@@H](O)[C@@H]2O)[C@H](O)[C@H](O)[C@H]1O [Rutin] | – | – | – | 42% | 34% | 42% | 36% | 40% | 34% | – | –
